Assay results taken from the supplement of paper PMC10307832.

Experiments:
Experiment in all cases: relative viability (nuclei count vs DMSO), 5 days (fraction); higher = more cells survive
Seliciclib + Luminespib = compound: CC[C@H](CO)Nc1nc(NCc2ccccc2)c2ncn(C(C)C)c2n1 [Seliciclib] + CCNC(=O)c1noc(-c2cc(C(C)C)c(O)cc2O)c1-c1ccc(CN2CCOCC2)cc1 [Luminespib] (partner 0.01 µM)
Summary of the method: (§1)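 Lung cancer cell lines were seeded in 1536-well plates and dosed by pin tool the next day, with either a single drug or a fixed anchor-drug dose combined with five library-drug doses (not always all listed) spaced in √10 steps. Five days later, one step fixed the cells and stained their nuclei (final 0.05% Triton X-100, 1% formaldehyde, 1 ug/ml Hoechst), and nuclei were counted on 4× images. Relative viability is the nuclei count in treated wells divided by the count in vehicle wells, and each value is the median of duplicate plates.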

Seliciclib + Foretinib = compound: CC[C@H](CO)Nc1nc(NCc2ccccc2)c2ncn(C(C)C)c2n1 [Seliciclib] + COc1cc2c(Oc3ccc(NC(=O)C4(C(=O)Nc5ccc(F)cc5)CC4)cc3F)ccnc2cc1OCCCN1CCOCC1 [Foretinib] (partner 0.25 µM)
Summary of the method: as §1

Seliciclib + Tozasertib = compound: CC[C@H](CO)Nc1nc(NCc2ccccc2)c2ncn(C(C)C)c2n1 [Seliciclib] + Cc1cc(Nc2cc(N3CCN(C)CC3)nc(Sc3ccc(NC(=O)C4CC4)cc3)n2)n[nH]1 [Tozasertib] (partner 0.1 µM)
Summary of the method: as §1

Seliciclib + AZD7762 = compound: CC[C@H](CO)Nc1nc(NCc2ccccc2)c2ncn(C(C)C)c2n1 [Seliciclib] + NC(=O)Nc1cc(-c2cccc(F)c2)sc1C(=O)N[C@H]1CCCNC1 [AZD7762] (partner 0.2 µM)
Summary of the method: as §1

Cell Line	relative viability (Seliciclib + Luminespib; first compound 0.08 µM)	relative viability (Seliciclib + Luminespib; first compound 0.253 µM)	relative viability (Seliciclib + Luminespib; first compound 0.8 µM)	relative viability (Seliciclib + Luminespib; first compound 2.53 µM)	relative viability (Seliciclib + Luminespib; first compound 8 µM)	relative viability (Seliciclib + Foretinib; first compound 0.08 µM)	relative viability (Seliciclib + Foretinib; first compound 0.253 µM)	relative viability (Seliciclib + Foretinib; first compound 0.8 µM)	relative viability (Seliciclib + Foretinib; first compound 2.53 µM)	relative viability (Seliciclib + Foretinib; first compound 8 µM)	relative viability (Seliciclib + Tozasertib; first compound 0.08 µM)	relative viability (Seliciclib + Tozasertib; first compound 0.253 µM)	relative viability (Seliciclib + Tozasertib; first compound 0.8 µM)	relative viability (Seliciclib + Tozasertib; first compound 2.53 µM)	relative viability (Seliciclib + Tozasertib; first compound 8 µM)	relative viability (Seliciclib + AZD7762; first compound 0.08 µM)	relative viability (Seliciclib + AZD7762; first compound 0.253 µM)	relative viability (Seliciclib + AZD7762; first compound 0.8 µM)	relative viability (Seliciclib + AZD7762; first compound 2.53 µM)	relative viability (Seliciclib + AZD7762; first compound 8 µM)
LK-2	0.186	0.236	0.164	0.174	0.253	1.13	1.08	0.776	0.85	0.977	0.203	0.154	0.17	0.175	0.168	0.414	0.379	0.584	0.187	0.293
LOU-NH91	0.318	0.332	0.293	0.305	0.276	0.9	0.904	0.885	0.905	0.739	0.638	0.686	0.583	0.62	0.515		0.715	0.794	0.702	0.569
LU99A	0.267	0.196	0.209	0.191	0.268	0.83	0.532	0.825	0.717	0.517	0.282	0.29	0.32	0.209	0.205	0.338	0.321	0.491	0.317	0.49
LXF-289	0.603	0.778	0.545	0.642	0.56	0.95	1.16	0.973	0.943	0.86	0.189	0.192	0.203	0.18	0.158	1.09	1.33	1.06	1.16	0.993
NCI-H23	0.202	0.206	0.209	0.211	0.242	0.977	1.09	0.96	0.88	0.592	0.424	0.368	0.379	0.426	0.322	0.25	0.292	0.424	0.258	0.468
NCI-H322M	0.855	0.883	0.794	0.786	0.809	1	1.23	0.907	0.865	0.752	0.49	0.497	0.474	0.462	0.435	0.594	0.646	0.637	0.692	0.907
NCI-H358	0.31	0.385	0.21		0.186	0.684	0.597	0.752	0.665	0.457	0.11	0.0892	0.112	0.104	0.11	0.55	0.577	0.235	0.462	0.434
NCI-H441	0.319	0.296	0.341	0.299	0.299	0.791	0.86	0.969	0.93	0.623	0.729	0.598	0.704	0.513	0.406	1.1	1.09	0.979	1.28	0.994
NCI-H460	0.0402	0.0324	0.0419	0.0357	0.0269	0.993	1.05	1	1.06	0.882	0.525	0.561	0.502	0.465	0.363	0.567	0.752	0.71	1.06	0.773
NCI-H596	0.802		1	0.84	0.745	0.849		0.843	0.68	0.65	0.862		0.849	1.03	0.865	1.12		1.17	1.19	0.993
NCI-H647	0.111	0.206	0.127	0.128	0.163	1.16		1.13	1.19	1.09	0.278		0.262	0.348	0.303	0.676	0.554	0.496	0.554	0.48
NCI-H650	0.807	0.757	0.921	0.727	0.709	1.03	1.03	0.912	0.842	0.856	0.693	0.782	0.704	0.464	0.584	1.15	0.863	1.26	0.947	1.07
NCI-H727	0.338	0.447	0.372	0.321	0.271	0.905	0.917	0.716	0.661	0.896	0.616	0.89	0.528	0.557	0.487	0.611	0.731	0.567	0.522	0.787
NCI-H838	0.356	0.27	0.332	0.28	0.344	0.902	0.928	0.998	1.11	0.808	0.252	0.257	0.304	0.25	0.253	0.922	0.966	0.877	0.939	0.861
NCI-H1355	0.722	0.638	0.643	0.713	0.684	0.95	0.976	0.706	1.03	0.93	0.586	0.517	0.513	0.506	0.388	0.805	0.623	0.799	0.832	0.975
NCI-H1395	0.709	0.722	0.726	0.588	0.669	0.974	0.905	0.978	0.995	0.966	0.738	0.718	0.719	0.718	0.69	0.41	0.436	0.419		0.533
NCI-H1437	0.999	1.2	1.05	1.05	0.809	1.2	1.31	1.26	1.31	1.18	0.425	0.431	0.405	0.4	0.352	1.06	1.19	1.17	0.999	1.08

Cell Line	relative viability (Seliciclib + Luminespib; first compound 0.08 µM)	relative viability (Seliciclib + Luminespib; first compound 0.253 µM)	relative viability (Seliciclib + Luminespib; first compound 0.8 µM)	relative viability (Seliciclib + Luminespib; first compound 2.53 µM)	relative viability (Seliciclib + Luminespib; first compound 8 µM)	relative viability (Seliciclib + Foretinib; first compound 0.08 µM)	relative viability (Seliciclib + Foretinib; first compound 0.253 µM)	relative viability (Seliciclib + Foretinib; first compound 0.8 µM)	relative viability (Seliciclib + Foretinib; first compound 2.53 µM)	relative viability (Seliciclib + Foretinib; first compound 8 µM)	relative viability (Seliciclib + Tozasertib; first compound 0.08 µM)	relative viability (Seliciclib + Tozasertib; first compound 0.253 µM)	relative viability (Seliciclib + Tozasertib; first compound 0.8 µM)	relative viability (Seliciclib + Tozasertib; first compound 2.53 µM)	relative viability (Seliciclib + Tozasertib; first compound 8 µM)	relative viability (Seliciclib + AZD7762; first compound 0.08 µM)	relative viability (Seliciclib + AZD7762; first compound 0.253 µM)	relative viability (Seliciclib + AZD7762; first compound 0.8 µM)	relative viability (Seliciclib + AZD7762; first compound 2.53 µM)	relative viability (Seliciclib + AZD7762; first compound 8 µM)
NCI-H1651	0.864	0.958	0.876	0.594	0.564	0.583	0.754	0.819	0.857	0.75	0.664	0.623	0.652	0.778	0.542	0.474	0.464	0.488	0.504	0.673
NCI-H1666	1.01	1.08	1.04	0.968	0.778	0.97	1.04	0.987	1	0.662	0.684	0.696	0.623	0.561	0.428	0.862	0.959	0.936	0.793	0.818
NCI-H1734	0.186	0.199	0.181	0.159	0.222	0.809	0.702	0.802	0.793	0.738	0.269	0.245	0.277	0.247	0.257	0.533	0.43	0.584	0.561	0.642
NCI-H1755	0.573	0.565	0.444	0.406	0.407	0.94	0.891	1.02	0.882	0.915	0.617	0.605	0.62	0.502	0.534	0.447	0.408	0.481	0.488	0.617
NCI-H1793	0.216	0.158	0.147	0.307	0.14	0.706	0.6	0.654	0.712	0.456	0.329	0.337	0.333	0.501	0.234	0.51	0.45	0.547	0.792	1.09
NCI-H1915	0.756	0.765	0.785	0.853	0.653	1.09	1.15	1.05	1.09	0.815	0.486	0.437	0.43	0.444	0.315	0.714	0.591	0.826	0.817	0.717
NCI-H1944	0.69	0.716	0.613	0.791	0.549	0.881	0.866	0.829	0.9	0.554	0.263	0.242	0.235	0.225	0.234	0.521	0.473	0.503	0.584	0.636
NCI-H1975	0.2	0.124	0.19	0.198	0.479	1	0.977	0.894	0.932	0.748	0.777	0.769	0.704	0.681	0.296	0.684	0.628	0.741	0.613	0.758
NCI-H1993	0.879	0.733	0.875	0.674	0.612	0.742	0.722	0.723	0.694	0.756	0.546	0.578	0.596	0.541	0.508	0.778	0.739	0.843	0.662	0.63
NCI-H2085	0.508	0.462	0.414	0.398	0.372	0.89	0.954	0.903	0.829	0.676	0.807	0.96	0.737	0.619	0.664	0.948	0.962	0.998	1.03	0.868
NCI-H2087	0.192	0.188	0.158	0.193	0.231	1.16	1.05	1.04	1.07	0.816	0.252	0.234	0.242	0.231	0.192	1.28	1.46	1.33	1.24	1.11
NCI-H2126	0.906	0.733	0.89	0.642	0.781	1.11	1.21	1.07	0.968	0.943	0.868	0.823	0.846	0.676	0.736	1.04	0.987	0.994	0.822	0.909
NCI-H2170	0.738	0.552	0.729	1.04	0.714	0.936	0.934	1.01	1.09	0.968	0.728	0.707	0.589	0.83	0.507	0.841		0.877	0.979	0.921
NCI-H2342	0.658	0.525	0.662	0.699	0.648	0.91	0.882	1.06	1.14	0.935	0.665	0.404	0.395	0.538	0.538	0.565	0.509	0.486	0.404	0.427
NCI-H2347	0.428	0.328	0.512	0.412	0.721	1.18	1.23	0.938		0.738	0.632	0.517	0.522	0.645	0.547	0.817	0.759	0.745	0.763	0.865
NCI-H2405	0.676	0.661	0.799	0.385	0.548	1.06	1.16	1.07	0.836	0.939	0.753	0.797	0.762	0.602	0.601	0.8	0.757	0.831	0.584	0.648
